Literature values as cited in paper PMC10651166 (Journal of acquired immune deficiency syndromes (1999), 2023).
Values after ≈ are worked out from the molar mass of the structure shown.

Test system: wild-type virus (HIV)
Conditions: protein-adjusted

CC(C)CN(C[C@@H](O)[C@H](Cc1ccccc1)NC(=O)O[C@H]1CO[C@H]2OCC[C@H]21)S(=O)(=O)c1ccc(N)cc1 [Darunavir]
EC50: 0.055 µg/mL (≈ 0.1 µM)
